From the supplement of paper PMC10307832

What was measured:
Assay in all cases: relative viability (nuclei count vs DMSO), 5 days (fraction); higher = more cells survive
[1] = test system: A-427
In short: (§1)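 A single step with final 0.05% Triton X-100, 1% formaldehyde and 1 ug/ml Hoechst fixed the cells and stained nuclei 5 days after treatment. Lung cancer cell lines in 1536-well plates had been treated by pin tool the day after seeding with one drug alone or a fixed anchor-drug dose plus five library-drug doses (not always all listed) in √10 steps, and nuclei were counted on 4× images. Relative viability is the ratio of nuclei in treated wells to nuclei in vehicle wells, taken as the median of duplicate plates.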

[2] = test system: CAL-12T
In short: as §1

[3] = test system: COR-L 105
In short: as §1

[4] = test system: EPLC-272H
In short: as §1

[5] = test system: HCC-15
In short: as §1

[6] = test system: LC-2-ad
In short: as §1

[7] = test system: LCLC-97TM1
In short: as §1

[8] = test system: NCI-H1395
In short: as §1

[9] = test system: NCI-H1563
In short: as §1

[10] = test system: NCI-H1734
In short: as §1

[11] = test system: NCI-H1792
In short: as §1

[12] = test system: NCI-H1915
In short: as §1

[13] = test system: NCI-H1975
In short: as §1

[14] = test system: NCI-H2023
In short: as §1

[15] = test system: NCI-H2342
In short: as §1

[16] = test system: NCI-H2347
In short: as §1

[17] = test system: NCI-H2405
In short: as §1

[18] = test system: NCI-H520
In short: as §1

[19] = test system: NCI-H838
In short: as §1

[20] = test system: SW 1573
In short: as §1

[21] = test system: SW 900
In short: as §1

[22] = test system: UMC-11
In short: as §1

Compound CN1CCN(CCOc2cc(OC3CCOCC3)c3c(Nc4c(Cl)ccc5c4OCO5)ncnc3c2)CC1 [Saracatinib] + Cc1nc(Nc2ncc(C(=O)Nc3c(C)cccc3Cl)s2)cc(N2CCN(CCO)CC2)n1 [Dasatinib] (partner 0.075 µM) has a relative viability ([1]; first compound 0.02 µM) of 0.658, a relative viability ([1]; first compound 0.2 µM) of 0.652 and a relative viability ([1]; first compound 0.6325 µM) of 0.691. The relative viability ([1]; first compound 2 µM) was 0.777, the relative viability ([2]; first compound 0.02 µM) was 0.593 and the relative viability ([2]; first compound 0.2 µM) was 0.451. For the same compound, the relative viability ([2]; first compound 0.6325 µM) was 0.47, the relative viability ([2]; first compound 2 µM) was 0.294 and the relative viability ([3]; first compound 0.02 µM) was 0.448. The relative viability ([3]; first compound 0.2 µM) was 0.457, the relative viability ([3]; first compound 0.6325 µM) was 0.376 and the relative viability ([3]; first compound 2 µM) was 0.242. The relative viability ([4]; first compound 0.02 µM) was 0.382, the relative viability ([4]; first compound 0.2 µM) was 0.401 and the relative viability ([4]; first compound 0.6325 µM) was 0.375. For the same compound, the relative viability ([4]; first compound 2 µM) was 0.307, the relative viability ([5]; first compound 0.02 µM) was 0.595 and the relative viability ([5]; first compound 0.2 µM) was 0.524. The relative viability ([5]; first compound 0.6325 µM) was 0.605, the relative viability ([5]; first compound 2 µM) was 0.561 and the relative viability ([6]; first compound 0.02 µM) was 0.611. For the same compound, the relative viability ([6]; first compound 0.2 µM) was 0.571, the relative viability ([6]; first compound 0.6325 µM) was 0.794 and the relative viability ([6]; first compound 2 µM) was 0.596. For the same compound, the relative viability ([7]; first compound 0.02 µM) was 0.636, the relative viability ([7]; first compound 0.2 µM) was 0.519 and the relative viability ([7]; first compound 0.6325 µM) was 0.723. For the same compound, the relative viability ([7]; first compound 2 µM) was 0.33, the relative viability ([8]; first compound 0.02 µM) was 0.394 and the relative viability ([8]; first compound 0.2 µM) was 0.418. It also gave a relative viability ([8]; first compound 0.6325 µM) of 0.411, a relative viability ([8]; first compound 2 µM) of 0.402 and a relative viability ([9]; first compound 0.02 µM) of 0.463. For the same compound, the relative viability ([9]; first compound 0.2 µM) was 0.39, the relative viability ([9]; first compound 0.6325 µM) was 0.437 and the relative viability ([9]; first compound 2 µM) was 0.397. It also gave a relative viability ([10]; first compound 0.02 µM) of 0.455, a relative viability ([10]; first compound 0.6325 µM) of 0.49 and a relative viability ([10]; first compound 2 µM) of 0.469. For the same compound, the relative viability ([11]; first compound 0.02 µM) was 0.824, the relative viability ([11]; first compound 0.2 µM) was 0.566 and the relative viability ([11]; first compound 0.6325 µM) was 0.894. For the same compound, the relative viability ([11]; first compound 2 µM) was 0.711, the relative viability ([12]; first compound 0.02 µM) was 0.308 and the relative viability ([12]; first compound 0.2 µM) was 0.292. It also gave a relative viability ([12]; first compound 0.6325 µM) of 0.282, a relative viability ([12]; first compound 2 µM) of 0.322 and a relative viability ([13]; first compound 0.02 µM) of 0.487. The relative viability ([13]; first compound 0.2 µM) was 0.343, the relative viability ([13]; first compound 0.6325 µM) was 0.372 and the relative viability ([13]; first compound 2 µM) was 0.253. The relative viability ([14]; first compound 0.02 µM) was 0.664, the relative viability ([14]; first compound 0.2 µM) was 0.651 and the relative viability ([14]; first compound 0.6325 µM) was 0.608. For the same compound, the relative viability ([14]; first compound 2 µM) was 0.553, the relative viability ([15]; first compound 0.02 µM) was 0.398 and the relative viability ([15]; first compound 0.2 µM) was 0.327. It also gave a relative viability ([15]; first compound 0.6325 µM) of 0.305, a relative viability ([15]; first compound 2 µM) of 0.295 and a relative viability ([16]; first compound 0.02 µM) of 0.305. It also gave a relative viability ([16]; first compound 0.2 µM) of 0.293, a relative viability ([16]; first compound 0.6325 µM) of 0.32 and a relative viability ([16]; first compound 2 µM) of 0.346. It also gave a relative viability ([17]; first compound 0.02 µM) of 0.22, a relative viability ([17]; first compound 0.2 µM) of 0.223 and a relative viability ([17]; first compound 0.6325 µM) of 0.228. The relative viability ([17]; first compound 2 µM) was 0.169, the relative viability ([18]; first compound 0.02 µM) was 0.21 and the relative viability ([18]; first compound 0.6325 µM) was 0.194. The relative viability ([18]; first compound 2 µM) was 0.244, the relative viability ([19]; first compound 0.02 µM) was 0.274 and the relative viability ([19]; first compound 0.2 µM) was 0.277. The relative viability ([19]; first compound 0.6325 µM) was 0.277, the relative viability ([19]; first compound 2 µM) was 0.281 and the relative viability ([20]; first compound 0.02 µM) was 0.463. It also gave a relative viability ([20]; first compound 0.2 µM) of 0.454, a relative viability ([20]; first compound 0.6325 µM) of 0.489 and a relative viability ([20]; first compound 2 µM) of 0.336. It also gave a relative viability ([21]; first compound 0.02 µM) of 0.559, a relative viability ([21]; first compound 0.2 µM) of 0.549 and a relative viability ([21]; first compound 0.6325 µM) of 0.548. The relative viability ([21]; first compound 2 µM) was 0.549, the relative viability ([22]; first compound 0.02 µM) was 0.471 and the relative viability ([22]; first compound 0.6325 µM) was 0.543. For the same compound, the relative viability ([22]; first compound 2 µM) was 0.473.
